Measurements published in ChEMBL document CHEMBL1201862, “PubChem BioAssay data set” (2004).
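1) Cells in 96-well plates. 2) Compound, 48 h, 5 concentrations. 3) Linear interpolation between surrounding doses. 4) Unreached endpoint = highest concentration. Abbreviation: GI50, concentration required for 50% inhibition of growth.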 Activity calls are given as the source filed them. No stated cut-off is given here; in the data, active = GI50 up to about 1.1 µM and inactive = higher.

How the values were obtained:
Test in all cases: inhibition of tumour cell growth, NCI panel, 48 h
[1] = tested on: T47D
[2] = tested on: DMS-114
[3] = tested on: HOP-18
[4] = tested on: LXFL 529
[5] = tested on: M19-MEL
[6] = tested on: SNB-78
[7] = tested on: XF498
[8] = tested on: RXF 631
[9] = tested on: DMS-273

Q: For NNC(=O)c1c(SCc2ccccc2)nc2c3ccccc3ccn12, which GI50 [1] is on record?
A: The GI50 was 18.1 µM (inactive).

Q: For c1csc(-c2ccsc2-c2ccsc2)c1, which GI50 [1] is on record?
A: Its GI50 is > 100 µM (inactive).

Q: How did the GI50 [2] turn out when CC(C)=CC1CC(=[N+]=[N-])C(=O)C1(C)C (configuration not stated) was run?
A: The GI50 was > 58.3 µM (inactive).

Q: And the GI50 [3]?
A: The GI50 was > 100 µM (inactive).

Q: What about the GI50 [4] of the same molecule?
A: Its GI50 is > 100 µM (inactive).

Q: And the GI50 [5]?
A: The GI50 was > 100 µM (inactive).

Q: What about the GI50 [6] of the same molecule?
A: Its GI50 is > 100 µM (inactive).

Q: What about the GI50 [7] of the same molecule?
A: Its GI50 is > 100 µM (inactive).

Q: Which GI50 [1] does the source give for CO[C@H]1C=CO[C@@]2(C)Oc3c(C)c(O)c4c(O)c(c(CN5CCN(C)CC5)c(O)c4c3C2=O)NC(=O)/C(C)=C\C=C[C@H](C)[C@H](O)C(C)[C@@H](O)C(C)[C@H](OC(C)=O)[C@@H]1C (some centres not stated) here?
A: The GI50 was 26.7 µM (inactive).

Q: With NCCC1([N+](=O)[O-])C=CN=CC1 (configuration not stated) as the molecule, how does the GI50 [1] read?
A: Its GI50 is > 100 µM (inactive).

Q: CCC1CN(C(=O)c2ccccc2)C(Cc2c[nH]c3ccccc23)C(=O)C1CC(=O)OC (configuration not stated) was tested. Which GI50 [1] did it give?
A: Its GI50 is > 100 µM (inactive).

Q: C/C(=N\NC(=O)C(N)=O)c1c(O)cc(C)oc1=O was tested. Which GI50 [4] did it give?
A: Its GI50 is > 100 µM (inactive).

Q: What about the GI50 [5] of the same molecule?
A: Its GI50 is > 100 µM (inactive).

Q: And the GI50 [8]?
A: Its GI50 is > 100 µM (inactive).

Q: What about the GI50 [6] of the same molecule?
A: The GI50 was > 100 µM (inactive).

Q: C#Cc1ccccc1C(=O)OC was tested. Which GI50 [2] did it give?
A: The GI50 was 89.9 µM (inactive).

Q: And the GI50 [9]?
A: The GI50 was > 100 µM (inactive).

Q: And the GI50 [3]?
A: The GI50 was > 100 µM (inactive).

Q: What about the GI50 [7] of the same molecule?
A: The GI50 was > 100 µM (inactive).

Q: With COc1ccccc1CNCc1nc2ccccc2[nH]1 as the molecule, how does the GI50 [1] read?
A: The GI50 was > 100 µM (inactive).

Q: How did the GI50 [1] turn out when CCOCC(=O)N[C@H]1CCc2cc(OC(=O)COCC)c(OC)c(OC)c2-c2ccc(SC)c(=O)cc21 was run?
A: Its GI50 is > 10 µM (inactive).

Q: O=C(Nc1ccn(CCOC(=O)c2ccccc2)c(=O)n1)c1ccccc1 was tested. Which GI50 [2] did it give?
A: The GI50 was > 100 µM (inactive).

Q: What about the GI50 [9] of the same molecule?
A: Its GI50 is > 100 µM (inactive).

Q: What about the GI50 [3] of the same molecule?
A: Its GI50 is > 100 µM (inactive).

Q: What about the GI50 [4] of the same molecule?
A: The GI50 was > 100 µM (inactive).

Q: What about the GI50 [5] of the same molecule?
A: The GI50 was > 100 µM (inactive).

Q: And the GI50 [6]?
A: The GI50 was > 100 µM (inactive).

Q: For Cn1c2c3ccc(Cl)cc3nc-2c(Cl)c2ccccc21, which GI50 [1] is on record?
A: The GI50 was 11.9 µM (inactive).

Q: With Cc1cc(O)cc(O)c1/N=N/c1ccc([N+](=O)[O-])cc1 as the molecule, how does the GI50 [1] read?
A: The GI50 was 9.14 µM (inactive).

Q: For Cc1ccc(S(=O)(=O)NC(C(=O)O)C(C)C)cc1 (configuration not stated), which GI50 [1] is on record?
A: The GI50 was > 100 µM (inactive).

Q: Which GI50 [1] does the source give for Cn1c(SCc2c[nH]c3ccccc23)nnc1-c1ccc(Cl)cc1Cl here?
A: Its GI50 is 12.7 µM (inactive).

Q: Cc1nc(C)c(C(=O)NNC(=O)c2ccccc2)cc1C(=O)NNC(=O)c1ccccc1 was tested. Which GI50 [1] did it give?
A: The GI50 was > 100 µM (inactive).

Q: For Cc1c(N)nc(C2CC(=O)N2CC(N)C(N)=O)nc1C(=O)NC(C(=O)NC(C)C(O)C(C)C(=O)NC(C(=O)NCCc1nc(-c2nc(C(=O)NCCNCC(C)O)cs2)cs1)C(C)O)C(OC1OC(CO)C(O)C(O)C1OC1OC(CO)C(O)C(OC(N)=O)C1O)c1c[nH]cn1 (configuration not stated), which GI50 [2] is on record?
A: The GI50 was 0.397 µM (active).

Q: What about the GI50 [9] of the same molecule?
A: Its GI50 is 0.129 µM (active).

Q: What about the GI50 [3] of the same molecule?
A: The GI50 was 13.4 µM (inactive).

Q: And the GI50 [4]?
A: The GI50 was > 38 µM (inactive).

Q: And the GI50 [5]?
A: Its GI50 is 5.04 µM (inactive).

Q: And the GI50 [6]?
A: The GI50 was > 89.3 µM (inactive).

Q: What about the GI50 [1] of the same molecule?
A: Its GI50 is > 5 µM (inactive).

Q: What about the GI50 [7] of the same molecule?
A: The GI50 was 1.35 µM (inactive).

Q: With Cc1cccc(-c2cc(=S)c3cc(N4CCCC4)ccc3[nH]2)c1 as the molecule, how does the GI50 [1] read?
A: Its GI50 is > 100 µM (inactive).

Q: With CCOC(=O)C1=C(O)C2C3CC4C2C(O)=C(C(=O)OCC)C2C1C3C42 (configuration not stated) as the molecule, how does the GI50 [1] read?
A: Its GI50 is > 100 µM (inactive).

Q: What does the source list for CC1CCC2(CC1)NN=c1s/c(=C\c3ccc(O)cc3)c(=O)n1N2 (configuration not stated)?
A: GI50 [2]: > 100 µM (inactive); GI50 [9]: > 100 µM (inactive); GI50 [3]: > 100 µM (inactive); GI50 [4]: > 100 µM (inactive); GI50 [5]: > 100 µM (inactive); GI50 [6]: > 100 µM (inactive); GI50 [7]: > 100 µM (inactive)

Q: How did the GI50 [2] turn out when Nc1ccc(Cn2ccc3c4c(N)nc(N)nc4ccc32)cc1 was run?
A: Its GI50 is < 0.01 µM (active).

Q: What about the GI50 [9] of the same molecule?
A: The GI50 was < 0.01 µM (active).

Q: What about the GI50 [3] of the same molecule?
A: Its GI50 is 10.2 µM (inactive).

Q: And the GI50 [4]?
A: Its GI50 is 0.0119 µM (active).

Q: What about the GI50 [5] of the same molecule?
A: The GI50 was 0.0834 µM (active).

Q: What about the GI50 [6] of the same molecule?
A: The GI50 was 7.35 µM (inactive).

Q: What about the GI50 [1] of the same molecule?
A: Its GI50 is 0.818 µM (active).

Q: What about the GI50 [7] of the same molecule?
A: Its GI50 is 1.5 µM (inactive).

Q: With C#CCNC(CS)C(=O)O (configuration not stated) as the molecule, how does the GI50 [1] read?
A: Its GI50 is > 100 µM (inactive).

Q: Which GI50 [1] does the source give for CN1CCOC1(C)CO (configuration not stated) here?
A: Its GI50 is > 100 µM (inactive).

Q: With CCC(C)[C@@H](NC1=C(Cl)C(=O)c2c(O)ccc(O)c2C1=O)C(=O)OC (some centres not stated) as the molecule, how does the GI50 [1] read?
A: Its GI50 is > 10 µM (inactive).

Q: Which results are given for O=[N+]([O-])c1ccc(/C=C/c2ccc(/N=N/c3ccc(/C=C/c4ccc([N+](=O)[O-])cc4S(=O)(=O)O)c(S(=O)(=O)O)c3)cc2S(=O)(=O)O)c(S(=O)(=O)O)c1?
A: GI50 [2]: > 100 µM (inactive); GI50 [9]: > 71 µM (inactive); GI50 [3]: > 74.6 µM (inactive); GI50 [5]: > 100 µM (inactive); GI50 [6]: > 83.6 µM (inactive); GI50 [7]: > 78 µM (inactive)

Q: How did the GI50 [1] turn out when CCCC1CCC(=C2C(=O)CCC2=O)O1 (configuration not stated) was run?
A: Its GI50 is > 100 µM (inactive).

Q: With C[O+]=C1C=CC(=C2SC(c3ccccc3)(c3ccccc3)c3ccccc32)C=C1.[O-][Cl+3]([O-])([O-])[O-] as the molecule, how does the GI50 [1] read?
A: The GI50 was 20.8 µM (inactive).

Q: How did the GI50 [1] turn out when Oc1ccc2ccccc2c1Cc1c(O)ccc2ccccc12 was run?
A: Its GI50 is 20.3 µM (inactive).

Q: Which GI50 [2] does the source give for O=CN/C=C/c1ccccc1O here?
A: Its GI50 is > 100 µM (inactive).

Q: What about the GI50 [9] of the same molecule?
A: The GI50 was > 100 µM (inactive).

Q: What about the GI50 [3] of the same molecule?
A: The GI50 was > 100 µM (inactive).

Q: And the GI50 [4]?
A: Its GI50 is > 100 µM (inactive).

Q: What about the GI50 [5] of the same molecule?
A: The GI50 was > 100 µM (inactive).

Q: And the GI50 [6]?
A: Its GI50 is > 100 µM (inactive).

Q: C=C1CC(Cn2cc(C)c(=O)[nH]c2=O)(c2ccc(-c3ccccc3)cc2)OC1=O (configuration not stated) was tested. Which GI50 [1] did it give?
A: Its GI50 is 1.99 µM (inactive).

Q: How did the GI50 [2] turn out when Nc1nc2[nH]c(=O)cnc2c(=O)[nH]1 [ISOXANTHOPTERIN] was run?
A: Its GI50 is > 125 µM (inactive).

Q: And the GI50 [9]?
A: The GI50 was > 125 µM (inactive).

Q: And the GI50 [3]?
A: Its GI50 is > 5.81 µM (inactive).

Q: What about the GI50 [5] of the same molecule?
A: The GI50 was > 85.1 µM (inactive).

Q: And the GI50 [6]?
A: The GI50 was > 125 µM (inactive).

Q: And the GI50 [7]?
A: Its GI50 is 10.6 µM (inactive).
